Test results published in article PMC9973354 (mBio, 2022).
Values joined by “and” are separate entries in the source; they are usually repeats but may differ in a detail not shown here. Equal entries are not always repeated. Starred links: 1 amine or outer side, 2 acyl side, 3 side chain; linkers in the order of their positions; H or OH if unused. Positions of bridges follow the written chain, without caps; N, C: chain ends. Non-standard residues stand in square brackets, D forms with d. Residues, ends and D or L forms follow the SMILES beside them. ξ: configuration not given here. X1 = O=C([C@@H]1CCN=C2C(N[*:1])=Cc3cc(O)c(O)cc3N21)[*:2]; ξOrn(N(OH)CHO) = NC(CCCN(O)C=O)C(=O)O; Suc = O=C(CCC(=O)[*:2])[*:1]; ξK = NCCCCC(N)C(=O)O; ξS = NC(CO)C(=O)O

Columns and labels:
FpvB W347V R648C = target: T1, FpvB W347V R648C (Pseudomonas aeruginosa, UniProt A0A0H2ZFZ5, R648C/W347V); assay: Whole-cell fluorescence quenching, FpvB W347V R648C; assay type: binding; settings: FpvB W347V R648C
T1 sequence (A0A0H2ZFZ5 23-802 W347V/R648C): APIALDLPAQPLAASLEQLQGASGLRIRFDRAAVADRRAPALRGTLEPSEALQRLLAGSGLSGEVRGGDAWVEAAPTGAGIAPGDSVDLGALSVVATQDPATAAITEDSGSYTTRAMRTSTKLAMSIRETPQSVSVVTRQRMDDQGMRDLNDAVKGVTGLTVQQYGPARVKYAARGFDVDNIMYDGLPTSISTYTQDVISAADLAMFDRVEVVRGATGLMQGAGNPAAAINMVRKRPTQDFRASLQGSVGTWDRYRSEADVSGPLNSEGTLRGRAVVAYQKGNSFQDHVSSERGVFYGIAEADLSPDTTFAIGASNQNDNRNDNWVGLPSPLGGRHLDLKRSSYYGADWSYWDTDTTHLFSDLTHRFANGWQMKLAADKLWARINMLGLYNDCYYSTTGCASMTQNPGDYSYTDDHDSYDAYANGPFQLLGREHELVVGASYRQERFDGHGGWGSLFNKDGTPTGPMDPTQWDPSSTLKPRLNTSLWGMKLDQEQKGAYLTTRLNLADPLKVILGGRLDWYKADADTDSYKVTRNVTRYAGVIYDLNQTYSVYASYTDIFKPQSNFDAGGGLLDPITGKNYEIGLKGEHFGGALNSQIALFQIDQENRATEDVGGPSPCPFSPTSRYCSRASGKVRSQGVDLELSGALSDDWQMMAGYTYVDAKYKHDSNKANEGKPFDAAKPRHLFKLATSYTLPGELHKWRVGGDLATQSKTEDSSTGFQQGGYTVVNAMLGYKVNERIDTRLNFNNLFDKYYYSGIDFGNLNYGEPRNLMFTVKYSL
Procedure: (§1) Quenching assays with the two xenosiderophores were repeated for the quadruple TBDT mutant expressing WT FpvB, FpvB R191A R648C, or W347V R648C.
(§2) Cells were cultured overnight in LB with carbenicillin (200 μg/mL) at 37°C with shaking at 200 rpm. Cells were subcultured (1:200 dilution) in 10:90 plus 2% arabinose for 4 h without carbenicillin at 37°C with shaking at 200 rpm. Cells were harvested by centrifugation for 5 min and 6,000 × g and resuspended in sterile 1× phosphate-buffered saline (PBS) (pH 7.4); 1× PBS was made from a 10× stock (80 g NaCl, 2 g KCl, 26.8 g Na2 HPO4-7H2O, 2.4 g KH2PO4 in 1 L of deionized H2O) with 10 μM Alexa Fluor 594 C5 maleimide for microscopy or fluorescein-5-maleimide for fluorescence quenching and recovery assays and incubated in the dark at room temperature for 30 min on a shaking incubator at 37°C (200 rpm). Excess dye was quenched with 1 mM dithiothreitol (DTT) (Sigma) to stop the reaction. Cells were washed 3× with PBS. For fluorescence recovery assays, cells were incubated with 1× PBS plus 0.4% glucose at 37°C with shaking at 200 rpm. Glucose was prepared as a 20% stock (wt/vol) in 1× PBS and filter sterilized. Cells were spun down and washed 3× with 1× PBS and resuspended in 1× PBS for quenching assays and 1× PBS plus 0.4% glucose for fluorescence recovery assays.
(§3) For fluorescence quenching and recovery assays, cells were diluted to an OD600 of 0.1 for both types of assays, and 148 μL was added into wells of a 96-well black plate (Corning). Fluorescence was recorded for 5 min at 1-min intervals at 37°C (BioTek Neo; excitation, 494 nm; emission, 520 nm). After 5 min, 2 μL of each serial dilution for ferrioxamine-Fe^3+, ferrichrome-Fe^3+, and pyoverdine-Fe^3+ or DMSO for vehicle controls was added to each well. Fluorescence was recorded immediately for quenching assays and for 1 h at 1-min intervals for fluorescence recovery assays. Background fluorescence was subtracted from all fluorescence readings and 1-F/F0 was used to calculate the degree of quenching, where F0 is the initial fluorescence. Kd was calculated using GraphPad Prism using a one-site specific binding model or a two-site model. For fluorescence recovery assays, background was subtracted from all fluorescence readings and F/F0 expressed as a percent of control was plotted versus time.

FpvB = assay: Western blot of FLAG-tagged FpvB expression after compound treatment; assay type: cell-based, Pseudomonas aeruginosa; settings: WT PA14 fpvB-FLAG; 10 μg/mL siderophores, 64 μg/mL DSX, 10:90
PA14 ΔfpvA ΔfpvB mutant = assay: Growth curves with DSX and siderophores, ΔfpvA ΔfpvB; assay type: cell-based, Pseudomonas aeruginosa; settings: 20 h
Procedure: (§4) Supplementary file : FIG S1 (A) FpvB is expressed in WT PA14 and the ΔfpvA mutant grown in 10:90. PilF was used as a loading control for outer membrane proteins. (B) FpvA is expressed from WT PA14 grown in 10:90. […] PilF was used as a loading control for outer membrane proteins. (C) Growth curves of PA14 and mutants with DSX and different siderophores in 10:90. PA14, ΔfpvA, ΔfpvB, ΔfpvA ΔfpvB, and ΔpvdA ΔpchA strain growth. Blue indicates control, purple indicates treatment with 64 μg/mL DSX, yellow indicates treatment with 10 μg/mL pyoverdine (PA14), and red indicates treatment with 64 μg/mL DSX and 10 μg/mL pyoverdine (PA14). (D) ΔfpvA, ΔfpvA ΔfpvB, and ΔpvdA ΔpchA strain growth. Blue indicates control, purple indicates treatment with 64 μg/mL DSX, grey indicates treatment with 10 μg/mL ferrichrome, and red indicates treatment with 64 μg/mL DSX and 10 μg/mL ferrichrome. (E) ΔfpvA, ΔfpvA ΔfpvB, and ΔpvdA ΔpchA strain growth. […] Download FIG S1, EPS file, 8.5 MB.
(§5) Another explanation for the susceptibility of the ΔfpvA mutant to DSX is that the mutant produces less pyoverdine compared to WT cells due to loss of the signaling cascade that controls siderophore production in response to its binding to FpvA ([25]). To differentiate whether the fpvA mutant was susceptible to DSX because of reduced pyoverdine production or because FpvB was a poor pyoverdine transporter, we treated the WT, ΔfpvA, ΔfpvB, and ΔfpvA ΔfpvB strains with DSX (64 μg/mL) without and with exogenous pyoverdine (10 μg/mL) for 20 h (Fig. 1; see also Fig. S1C). Growth of the ΔfpvA mutant should be restored if there are functional pyoverdine transporters. […] The growth of the ΔfpvA ΔfpvB mutant was inhibited by DSX and pyoverdine, confirming previously published results ([18]).
(§6) As a control, a ΔpvdA ΔpchA mutant unable to make pyoverdine and pyochelin was also tested. Growth of this mutant was inhibited by DSX.

PA14 ΔpvdA ΔpchA mutant = assay: Growth curves with DSX and siderophores, ΔpvdA ΔpchA; assay type: cell-based, Pseudomonas aeruginosa; settings: 64 μg/mL DSX + 10 μg/mL siderophore, 20 h
Procedure: as §4, §6

FpvB R191A R648C = target: T2, FpvB R191A R648C (Pseudomonas aeruginosa, UniProt A0A0H2ZFZ5, R191A/R648C); assay: Whole-cell fluorescence quenching, FpvB R191A R648C; assay type: binding; settings: FpvB R191A R648C
T2 sequence (A0A0H2ZFZ5 23-802 R191A/R648C): T1 sequence (A0A0H2ZFZ5 23-802 W347V/R648C)
Procedure: as §1, §2, §3

PA14 ΔfpvA mutant = assay: Growth curves with DSX and siderophores, ΔfpvA; assay type: cell-based, Pseudomonas aeruginosa; settings: 20 h; for growth with siderophore in the presence of DSX: 64 μg/mL DSX + 10 μg/mL siderophore
Procedure: as §4, §5, §6

[1] = one-site model, read-out: Kd (converted)

Row | SMILES | Kd (FpvB W347V R648C; [1]) [µM] | stimulation of FpvB expression (FpvB) | growth with siderophore in the presence of DSX (PA14 ΔfpvA ΔfpvB mutant; 64 μg/mL DSX + 10 μg/mL siderophore) | growth with siderophore in the presence of DSX (PA14 ΔpvdA ΔpchA mutant) | Kd (FpvB R191A R648C; [1]) | growth with siderophore in the presence of DSX (PA14 ΔfpvA mutant) | affinity (Kd not reached, no saturation at highest concentration) (FpvB W347V R648C) | growth versus control (PA14 ΔfpvA ΔfpvB mutant; DSX 64 μg/mL, pyoverdine 10 μg/mL) | affinity (Kd not reached, no saturation at highest concentration) (FpvB R191A R648C) | growth versus control (PA14 ΔfpvA mutant; DSX 64 μg/mL or pyoverdine 10 μg/mL alone, 10:90)
1 | CC(=O)N(O)CCCCCNC(=O)CCC(=O)N(O)CCCCCNC(=O)CCC(=O)N(O)CCCCCN [ferrioxamine B] | 874 | None of the compounds stimulated expression | rescued growth | rescued growth | 535 µM and 480 µM | rescued growth |  |  |  | 
2 | NCCCCC(NC(=O)C(CO)NC(=O)[C@@H]1CCN=C2C(NC(=O)CCC(=O)O)=Cc3cc(O)c(O)cc3N21)C(=O)NCC(=O)NC(CCCN(O)C=O)C(=O)NC1CCCCNC(=O)C(CO)NC(=O)C(CCCN(O)C=O)NC1=O (stereo partly shown) [pyoverdine] (Suc-[X1][ξS][ξK]G[ξOrn(N(OH)CHO)][ξK][ξOrn(N(OH)CHO)][ξS]; lactam 6-C) |  | None of the compounds stimulated expression |  | restored growth |  | restored growth compared to DSX alone | reduced affinity | inhibited | reduced affinity | delayed growth
